From ChEMBL document CHEMBL1201862, “PubChem BioAssay data set” (2004)
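Exposure lasted 48 hours, with cells grown in 96-well plates and compounds tested at five concentrations. GI50: concentration for 50% inhibition of growth.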 Calls of active or inactive are those of the source. Cut-off read from the data, not from the text of the source: active = GI50 up to about 1.1 µM and inactive = higher.

Assays:
Assay in all cases: DTP human tumour cell line panel, 48 h
[1] = test system: M14
[2] = test system: HCT-15
[3] = test system: SF-539
[4] = test system: RPMI-8226
[5] = test system: MDA-MB-231
[6] = test system: DU-145
[7] = test system: HL-60
[8] = test system: PC-3
[9] = test system: SK-MEL-2
[10] = test system: SF-295
[11] = test system: SNB-75
[12] = test system: SR
[13] = test system: HCT-116
[14] = test system: BT-549
[15] = test system: U-251
[16] = test system: SK-OV-3
[17] = test system: SF-268
[18] = test system: NCI-H460
[19] = test system: Malme-3M
[20] = test system: SK-MEL-28

`Cc1cc(O)c2c(=O)c3ccccc3[nH]c2c1` was tested, and the GI50 [1] was 18.1 µM (inactive), the GI50 [2] was 11.4 µM and the GI50 [3] was 15.7 µM (inactive). The GI50 [4] was 11.8 µM (inactive), the GI50 [5] was 32.4 µM (inactive) and the GI50 [6] was 35.2 µM (inactive). The GI50 [7] was 28.3 µM (inactive), the GI50 [8] was 19.3 µM (inactive) and the GI50 [9] was 81.7 µM (inactive). For the same compound, the GI50 [10] was 20 µM (inactive), the GI50 [11] was 29.2 µM (inactive) and the GI50 [12] was 16 µM (inactive). The GI50 [13] was 20.3 µM (inactive), the GI50 [14] was 24.8 µM (inactive) and the GI50 [15] was 40.8 µM (inactive). The GI50 [16] was 52.8 µM (inactive), the GI50 [17] was 26.8 µM (inactive) and the GI50 [18] was 14.9 µM (inactive). The GI50 [19] was 32.7 µM (inactive) and the GI50 [20] was 42.7 µM (inactive).

With `CN(C)c1nc(N)c(C#N)c(C#N)c1C#N` the GI50 [1] was > 10 µM (inactive), the GI50 [2] was greater than 10 µM and the GI50 [3] was > 10 µM (inactive). The GI50 [4] was > 8.79 µM (inactive), the GI50 [5] was > 10 µM (inactive) and the GI50 [6] was > 10 µM (inactive). For the same compound, the GI50 [7] was 2.21 µM (inactive), the GI50 [8] was > 10 µM (inactive) and the GI50 [9] was > 10 µM (inactive). For the same compound, the GI50 [10] was > 10 µM (inactive), the GI50 [11] was 9.68 µM (inactive) and the GI50 [12] was 3.42 µM (inactive). The GI50 [13] was > 10 µM (inactive), the GI50 [14] was > 10 µM (inactive) and the GI50 [15] was > 10 µM (inactive). The GI50 [16] was > 10 µM (inactive), the GI50 [17] was > 10 µM (inactive) and the GI50 [18] was > 10 µM (inactive). For the same compound, the GI50 [19] was > 10 µM (inactive) and the GI50 [20] was > 10 µM (inactive).

In the case of `O=S(=O)(c1cccc(C(F)(F)F)c1)N1c2ccccc2-n2cccc2C1c1cccnc1` (stereo not given), the GI50 [1] is reported as 16.2 µM (inactive), the GI50 [2] is reported as 22 µM and the GI50 [3] is reported as 28 µM (inactive). For the same compound, the GI50 [4] was 6.17 µM (inactive), the GI50 [5] was > 36.8 µM (inactive) and the GI50 [6] was > 39.7 µM (inactive). The GI50 [7] was 1.1 µM (active), the GI50 [8] was 10.7 µM (inactive) and the GI50 [9] was 17.7 µM (inactive). For the same compound, the GI50 [10] was 71.8 µM (inactive), the GI50 [11] was 61.9 µM (inactive) and the GI50 [12] was 6.71 µM (inactive). The GI50 [13] was 18.8 µM (inactive), the GI50 [14] was 9.29 µM (inactive) and the GI50 [15] was 23.9 µM (inactive). The GI50 [16] was > 46.9 µM (inactive), the GI50 [17] was > 43.2 µM (inactive) and the GI50 [18] was 22.9 µM (inactive). For the same compound, the GI50 [19] was 21.4 µM (inactive) and the GI50 [20] was 29.4 µM (inactive).

`COc1ccc2c(c1)-c1nn(CCN(C)C)c3ccc(C(=O)NCCCN(C)CCCNC(=O)c4ccc5c6c(c7cc(OC)ccc7nc46)NN5CCN(C)C)c(c13)N2` was tested, and the GI50 [1] was 0.0822 µM (active), the GI50 [2] was 0.251 µM and the GI50 [3] was < 0.01 µM (active). The GI50 [4] was 0.0105 µM (active), the GI50 [5] was 0.114 µM (active) and the GI50 [6] was 0.0284 µM (active). For the same compound, the GI50 [7] was 0.204 µM (active), the GI50 [8] was 0.0208 µM (active) and the GI50 [9] was 0.0184 µM (active). The GI50 [10] was 0.0671 µM (active), the GI50 [11] was 0.114 µM (active) and the GI50 [12] was 0.127 µM (active). The GI50 [13] was < 0.01 µM (active), the GI50 [14] was 0.138 µM (active) and the GI50 [15] was < 0.01 µM (active). The GI50 [16] was 0.0861 µM (active), the GI50 [17] was 0.153 µM (active) and the GI50 [18] was 0.0187 µM (active). The GI50 [19] was 0.106 µM (active) and the GI50 [20] was 0.0561 µM (active).

With `CC(=O)OCC1OC(n2c(N)c(C#N)c(-c3ccccc3)c(C#N)c2=S)C(OC(C)=O)C(OC(C)=O)C1OC(C)=O` (stereo not given) the GI50 [1] was > 100 µM (inactive), the GI50 [2] was greater than 100 µM and the GI50 [3] was > 46.9 µM (inactive). The GI50 [4] was > 100 µM (inactive), the GI50 [5] was 34 µM (inactive) and the GI50 [6] was > 100 µM (inactive). The GI50 [7] was > 100 µM (inactive), the GI50 [8] was > 100 µM (inactive) and the GI50 [9] was > 58.9 µM (inactive). For the same compound, the GI50 [10] was 30.8 µM (inactive), the GI50 [11] was 7.33 µM (inactive) and the GI50 [12] was > 100 µM (inactive). For the same compound, the GI50 [13] was > 100 µM (inactive), the GI50 [14] was 42.6 µM (inactive) and the GI50 [15] was 11.2 µM (inactive). The GI50 [16] was 54.2 µM (inactive), the GI50 [17] was 7.8 µM (inactive) and the GI50 [18] was > 79.8 µM (inactive). For the same compound, the GI50 [19] was > 100 µM (inactive) and the GI50 [20] was > 100 µM (inactive).

With `COc1ccc2c(c1)[C@@H](NC(C)=O)CCc1cc(OC)c(OC)c(OC)c1-2` the GI50 [1] was 0.0166 µM (active), the GI50 [2] was 0.015 µM and the GI50 [3] was 0.013 µM (active). The GI50 [4] was 0.0206 µM (active), the GI50 [5] was 0.0228 µM (active) and the GI50 [6] was 0.0185 µM (active). For the same compound, the GI50 [7] was < 0.012 µM (active), the GI50 [8] was 0.0251 µM (active) and the GI50 [9] was 0.0174 µM (active). For the same compound, the GI50 [10] was 0.0151 µM (active), the GI50 [11] was 0.0258 µM (active) and the GI50 [12] was 0.0834 µM (active). For the same compound, the GI50 [13] was 0.0148 µM (active), the GI50 [14] was 1.85 µM (inactive) and the GI50 [15] was 0.0173 µM (active). For the same compound, the GI50 [16] was 0.129 µM (active), the GI50 [17] was 0.0154 µM (active) and the GI50 [18] was 0.0168 µM (active). For the same compound, the GI50 [19] was 0.0216 µM (active) and the GI50 [20] was < 0.017 µM (active).

`CO[C@]12S[C@@H]3CCCC[C@@]31C(C)(C)C(=O)N2c1ccccc1` was tested, and the GI50 [1] was 70 µM (inactive), the GI50 [2] was 29.1 µM and the GI50 [3] was 4.11 µM (inactive). The GI50 [4] was 24.7 µM (inactive), the GI50 [5] was 42.2 µM (inactive) and the GI50 [6] was 55.3 µM (inactive). For the same compound, the GI50 [7] was 14.6 µM (inactive), the GI50 [8] was 23.6 µM (inactive) and the GI50 [9] was 26.8 µM (inactive). For the same compound, the GI50 [10] was 16 µM (inactive), the GI50 [11] was 51.5 µM (inactive) and the GI50 [12] was 28.5 µM (inactive). For the same compound, the GI50 [13] was 33.2 µM (inactive), the GI50 [14] was 27.4 µM (inactive) and the GI50 [15] was 26.6 µM (inactive). For the same compound, the GI50 [16] was 25.8 µM (inactive), the GI50 [17] was 37.9 µM (inactive) and the GI50 [18] was 33 µM (inactive). For the same compound, the GI50 [19] was > 100 µM (inactive) and the GI50 [20] was 75.5 µM (inactive).

For `O=[N+]([O-])c1ccc(-n2nc3ccc4c(no[n+]4[O-])c3[n+]2[O-])c([N+](=O)[O-])c1`, the GI50 [1] was 1.59 µM (inactive), the GI50 [2] was 2.69 µM and the GI50 [3] was 6.15 µM (inactive). The GI50 [4] was 2.29 µM (inactive), the GI50 [5] was 2.27 µM (inactive) and the GI50 [6] was 5.56 µM (inactive). The GI50 [7] was 1.95 µM (inactive), the GI50 [8] was 8 µM (inactive) and the GI50 [9] was 3.56 µM (inactive). For the same compound, the GI50 [10] was 4.53 µM (inactive), the GI50 [11] was 8.81 µM (inactive) and the GI50 [12] was 1.91 µM (inactive). The GI50 [13] was 1.91 µM (inactive), the GI50 [14] was 2.67 µM (inactive) and the GI50 [15] was 2.77 µM (inactive). The GI50 [16] was 9.51 µM (inactive), the GI50 [17] was 5.05 µM (inactive) and the GI50 [18] was 5.55 µM (inactive). The GI50 [19] was 2.45 µM (inactive) and the GI50 [20] was 2.51 µM (inactive).

`Cc1c(N)nc([C@H](CC(N)=O)NC[C@H](N)C(N)=O)nc1C(=O)N[C@H](C(=O)N[C@H](C)[C@@H](O)CC(=O)N[C@H](C(=O)NC(O[C@@H]1O[C@@H](C)[C@@H](N)[C@@H](O)[C@H]1O)C(O)c1nc(-c2nc(C(=O)NCCC[S+](C)C)cs2)cs1)[C@@H](C)O)[C@H](O[C@@H]1O[C@@H](CO)[C@@H](O)[C@H](O)[C@@H]1O[C@H]1O[C@H](CO)[C@@H](O)[C@H](OC(N)=O)[C@@H]1O)c1c[nH]cn1` (stereo not given in full) was tested, and the GI50 [1] was > 100 µM (inactive), the GI50 [2] was 34.4 µM and the GI50 [3] was 2.2 µM (inactive). For the same compound, the GI50 [4] was > 100 µM (inactive), the GI50 [5] was > 100 µM (inactive) and the GI50 [6] was > 100 µM (inactive). For the same compound, the GI50 [7] was > 100 µM (inactive), the GI50 [8] was 65 µM (inactive) and the GI50 [9] was > 100 µM (inactive). The GI50 [10] was 5.46 µM (inactive), the GI50 [11] was 18.3 µM (inactive) and the GI50 [12] was 0.0109 µM (active). For the same compound, the GI50 [13] was 15.1 µM (inactive), the GI50 [14] was > 100 µM (inactive) and the GI50 [15] was 92.5 µM (inactive). For the same compound, the GI50 [16] was > 100 µM (inactive), the GI50 [17] was 39.2 µM (inactive) and the GI50 [18] was 2.79 µM (inactive). For the same compound, the GI50 [19] was 37.2 µM (inactive) and the GI50 [20] was > 100 µM (inactive).

In the case of `COc1ccc(-c2cc(=O)c3c(O)cc(O)cc3o2)cc1OC`, the GI50 [1] is reported as > 100 µM (inactive), the GI50 [2] is reported as greater than 100 µM and the GI50 [3] is reported as 18.4 µM (inactive). For the same compound, the GI50 [4] was 64.9 µM (inactive), the GI50 [5] was > 100 µM (inactive) and the GI50 [6] was 57 µM (inactive). For the same compound, the GI50 [7] was 39.9 µM (inactive), the GI50 [8] was 55.1 µM (inactive) and the GI50 [9] was > 100 µM (inactive). The GI50 [10] was 44.8 µM (inactive), the GI50 [11] was 4.69 µM (inactive) and the GI50 [12] was 9.2 µM (inactive). The GI50 [13] was 28.2 µM (inactive), the GI50 [14] was 17.9 µM (inactive) and the GI50 [15] was 30 µM (inactive). The GI50 [16] was 47.4 µM (inactive), the GI50 [17] was 28.4 µM (inactive) and the GI50 [18] was 44.7 µM (inactive). The GI50 [19] was > 100 µM (inactive) and the GI50 [20] was > 100 µM (inactive).
